Test: Determination of drug stability: testosterone impurities/degradants in hot-melt extruded composition by HPLC
Type: physicochemical
Method: Testosterone and any other ingredients were added to the wet granulated excipient mixture prepared according to Example 1. The blend was extruded as a monolayer film using a having a barrel temperature of 135° C. The moisture content of the blend prior to extrusion was 3.1%. The HME composition is then analyzed by HPLC according to Example 4 to determine the amount of degradants present.
Twenty doses were sampled from a HME composition at the beginning, middle and end of the extrusion run a formulation. Composites of 10 doses were analyzed in duplicate for impurities by HPLC at each time point. The weight percent for each degradant was determined. Specific degradants analyzed include: 6B-Hydroxy-testosterone, 4-Androsten-16-alpha-ol-3,17-dione, Epi-Testosterone and unidentified degradants. The HPLC method employed will vary according to the drug included in the HME composition. Such methods are found in HPLC in the Pharmaceutical Industry (edited by Godwin W. Fong, Stanley K. Lam, New York: M. Dekker, 1991) or HPLC Methods for Pharmaceutical Analysis (by George Lunn and Norman R. Schmuff. New York: John Wiley & Sons, 1997), the disclosures of which are hereby incorporated by reference.

[1] = HME composition extruded at 135 ° C.
[2] = HME composition extruded at 145 ° C.
[3] = HME composition, granulation fluid Aqueous Ethanol
[4] = HME composition, granulation fluid Water

With `C[C@]12CC[C@H]3[C@@H](CCC4=CC(=O)CC[C@@]43C)[C@@H]1CC[C@@H]2O` [testosterone] the “Total Unknown Impurities (%)” value (HME composition (PolyOx, Poloxamer wet granulated with water, Carbopol) extruded at 135 ° C.) was 0.1%, the “Total Unknown Impurities (%)” value (HME composition (PolyOx, Poloxamer wet granulated with water, Carbopol) extruded at 145 ° C.) was 0.4% and the “4-Androsten-16-alpha-ol-3,17-dione (%)” value [1] was “ND (ND denotes below the limit of quantitation using the HPLC method detailed herein. In this case, ND means less than 0.1% by wt.)”. For the same compound, the “6B-Hydroxy-testosterone (%)” value [1] was “ND (ND denotes below the limit of quantitation using the HPLC method detailed herein. In this case, ND means less than 0.1% by wt.)”, the “Epi-Testosterone (%)” value [1] was “ND (ND denotes below the limit of quantitation using the HPLC method detailed herein. In this case, ND means less than 0.1% by wt.)” and the “4-Androsten-16-alpha-ol-3,17-dione (%)” value [2] was “ND (ND denotes below the limit of quantitation using the HPLC method detailed herein. In this case, ND means less than 0.1% by wt.)”. For the same compound, the “6B-Hydroxy-testosterone (%)” value [2] was 0.15%, the “Epi-Testosterone (%)” value [2] was “ND (ND denotes below the limit of quantitation using the HPLC method detailed herein. In this case, ND means less than 0.1% by wt.)” and the “4-Androsten-16-alpha-ol-3,17-dione (%)” value [3] was 0.00-0.20%. For the same compound, the “6B-Hydroxy-testosterone (%)” value [3] was 0.00-0.20%, the “Epi-Testosterone (%)” value [3] was 0.00-0.50% and the “Total Unknown Impurities (%)” value (HME composition, granulation fluid Aqueous Ethanol (50:50 water/ethanol)) was 0.00-0.75%. For the same compound, the “4-Androsten-16-alpha-ol-3,17-dione (%)” value [4] was 0.10-0.50%, the “6B-Hydroxy-testosterone (%)” value [4] was 0.10-0.50% and the “Epi-Testosterone (%)” value [4] was 0.00-0.50%. For the same compound, the “Total Unknown Impurities (%)” value [4] was 0.50-1.00%.

Source: patent publication US9867786B2, “Stabilized compositions containing alkaline labile drugs” (AUXILIUM US HOLDINGS, LLC, priority 2006, dated 2018)
